Each structure is given as a SMILES string.

Usually melting point stands for the temperature, or range, at which the solid turns liquid.

As to `Clc1ccc(C2(c3ccccc3)OC2n2ccnc2)c(Cl)c1` (centres undefined), the melting point lay within 135 to 137 °C.
`CCc1nc(C)c(C(C)(O)c2ccsc2)o1` (centres undefined): the melting point was 77.5 to 79 °C.
To `O=c1[nH]c(N2CCN(CCO)CC2)cc2c(F)cccc12` belongs 207 to 208 °C; to `CS(=O)(=O)CCNC(=O)c1cccc(-c2ccc3c(c2)C(c2ccc(Cl)cc2Cl)CC3)c1` (centres undefined), 193 to 194 °C; to `Nc1c(-c2ccccc2)cc(-c2ccccc2)c2cccnc12`, 100 to 102 °C.
In the case of `Cc1cccc(-c2ccnc3ccnn23)n1` it was 126 to 127 °C; in that of `Cc1ccc(Nc2nc(-c3cc(-c4ccccc4)no3)cs2)nc1`, 224 to 227 °C.
To `O=C1OC(C2CCCCC2)(C2CCCCC2)C2CNCCN12` (centres undefined) belongs 151 to 152 °C; to `C1=C(COc2ccccc2)CCN(Cc2c[nH]c3ccccc23)C1`, 140 to 142 °C.
The molecule `O=[N+]([O-])c1cnccc1NCc1ccc(F)cc1` gave a melting point of 137 °C.
To `O=Cc1ccc(OCCC2Oc3ccccc3N(Cc3cccc(Cl)c3)C2=O)cc1` (centres undefined) belongs 130 to 131 °C; to `CCCCc1nc(Cl)c(CNC(=O)c2cc3c(OCC(O)CN(C(=O)OC(C)(C)C)C(C)C)cccc3[nH]2)n1Cc1ccc(-c2ccccc2C(=O)OC)cc1` (centres undefined), 158 to 160 °C; to `CCCCc1oc2ccccc2c1C(=O)NCc1ccc2c(-c3ccc(C)cc3)c(O)ccc2c1`, 103 to 105 °C.
To `COc1cc2sc(-c3cccnc3)nc2cc1N=C=S` belongs 164 to 166 °C; to `O=C(C=Cc1ccccc1)NNC(=O)c1ccc(O)cc1`, 263 to 264 °C; to `Cc1cccc(C)c1NC(=O)c1ccc(CN2C(=O)C3(COc4cc5c(cc43)CCO5)c3ccccc32)cc1` (centres undefined), over 250 °C.
In the case of `CCCCOC(=O)c1cccc(CCN(C)CCCC(C#N)(c2ccc(OC)c(OC)c2)C(C)C)c1` (centres undefined), the melting point lay in the range of 97 to 103 °C.
`COc1ccc2c(ccn2S(=O)(=O)c2ccccc2)c1` returned a melting point of 73 to 75 °C.
To `CC(=O)N[C@@H](C)COc1cc(-c2nc3cc(OCC4CC4)ccc3o2)on1` belongs 156 to 157 °C; to `CCOC(=O)N(Cc1ccccc1)Cn1cc(Cl)cnc1=O`, 143 °C; to `COc1ccc([C@@H]2CCc3cc(OC)ccc3[C@@H]2Cn2ccnc2)cc1` (relative stereo), 114 °C.
In the case of `CCC/C=C/[C@H]1CC[C@H](c2ccc(C(C)=O)cc2)CC1` it was 51.2 °C; in that of `Cc1cccc(-n2c(-c3sc(NC(=O)c4ccccc4)nc3-c3ccccc3)nc3ccccc3c2=O)c1`, over 275 °C; in that of `N#CCN1CCc2oc3ccccc3c2C1`, 78 °C.
With `O=C(c1ccc(F)cc1)c1cnn2c(-c3ccncc3)ccnc12`, the melting point lay within 214 to 216 °C.
In the case of `COC(=O)CCCCSCCCCCCCCCCCOS(=O)(=O)c1ccc(C)cc1`, the melting point amounted to 54 °C.
In turn, `CN(C)c1nc2cc(N)ccn2n1` came in with a melting point of 236 to 238 °C.
In the case of `Oc1ccc(-c2nn(-c3ccc(Br)cc3)c3c(C(F)(F)F)cccc23)cc1` it was 176 to 177 °C.
In the case of `CC1(C)CC(=O)CC(C)(C)N1CCCCCCN1C(C)(C)CC(=O)CC1(C)C` it was 151 to 152 °C; in that of `COc1ccc(S(=O)(=O)C(c2cnc(C(=O)NCCO)cc2C)c2cc(F)ccc2F)cc1F` (centres undefined), 137 to 138 °C; in that of `CCOC(=O)/C=C(/c1ccc(OC)cc1)c1cc(F)cc(F)c1`, 65 to 66 °C.
In the case of `CCC1(C)CC(NC(=O)C(=O)NC2CC(C)(CC)N(C(C)=O)C(C)(CC)C2C)C(C)C(C)(CC)N1C(C)=O` (centres undefined) it was 164 °C.
On to `O=C(C=Cc1cccnc1)NCCCCC1CCN(C(c2ccccc2)C2CCCCC2)CC1` (centres undefined), for which the melting point lay in the range of 143 to 145 °C.
`c1cnc2c(OCCn3ccc4ccc5c(c43)CCNCC5)cccc2c1` registered a melting point of 129 to 132 °C.
In the case of `CC(C)(C)OC(=O)NCCC(=O)NC(CC(=O)OCc1ccccc1)c1ccccc1` (centres undefined) it was 124 to 126 °C; in that of `C=CCNCC(O)COc1cccc2c1CC(=O)N2` (centres undefined), 124 to 127 °C.
In the case of `Cc1c(-c2ccncc2)sc(-c2ccncc2)c1C(C)O` (centres undefined) it was 155 to 157 °C; in that of `COc1c(C)c(-c2ccccc2)nn1N`, 92 to 94 °C; in that of `Cc1cc(C(=O)O)ccc1C1=CC(C)(C)CC(C)(C)C1`, 118 to 120 °C.
Consider `COc1cccc(CNc2nccc(-c3cc(N4CCN(CCCN5CCCCC5)CC4)c4cc(OC)ccc4c3)n2)c1`, for which the melting point fell in the range of 63 to 75 °C.
In the case of `COC=C(C(=O)OC)n1ccc2ccc(-c3csc(-c4ccccc4)n3)cc21` it was 145 to 146 °C.
In the case of `CCOC(=O)c1cn(C2CC2)c2c(F)c(F)c(F)c(CC)c2c1=O` it was 139 to 140 °C; in that of `CCCN(c1ccncc1)N1C(=O)C(C)(C)c2ccccc21`, 125 to 127 °C; in that of `CSC1C(=O)Nc2ccc(-c3ccccc3)cc21` (centres undefined), 170 to 172 °C.
To `Oc1ccccc1C=NC1CCOc2ccccc21` (centres undefined) belongs 123 to 126 °C; to `Cc1c(CO)c2cnnc(OCc3ccc(F)cc3)c2n1C[C@H]1C[C@@H]1C`, 128 to 129 °C.
Turning to `CCCCCCC(=O)c1ccc(OCCN2CCN(c3cc(Cl)nnc3Cl)CC2)cc1`, the melting point was in the range of 113 to 115 °C.
For `CC(=O)c1cc(I)c2c(c1)C=CC(C)(C)O2`, the melting point stood at 102 °C.
In the case of `N#Cc1cc(NC(=O)c2cc3ccccc3s2)ccc1N(CCO)CCO` it was 163 to 168 °C; in that of `CCCC1=C(C#N)C(c2ccccc2Cl)c2c(n[nH]c2-c2ccc(OC)cc2)N1` (centres undefined), 284 °C; in that of `CCOC(=O)c1cc(OC)c(Cc2cnc(N)nc2N)c(OC)c1`, 201 to 202 °C.
In the case of `S=C1Nc2c(Cl)cccc2CS1` it was 125 to 126 °C; in that of `O=[PH](c1ccc2c(c1)OCO2)c1ccc2c(c1)OCO2`, 128 °C.
On to `COc1ccc(C=CC(=O)C=Cc2ccccc2)cc1`, for which the melting point was 85 to 89 °C.
To `O=C(NN=Cc1ccc([N+](=O)[O-])o1)c1ncn2ccccc12` belongs 300 °C.
With `O=S(=O)(c1ccc(Cl)cc1)N1CCCC1c1ccc(F)c(Cl)c1` (racemic), the melting point was 119 °C.
To `CCC1CC2C3CCC4=C(CCC(=O)C4)C3=CCC2(CC)C1OC(C)=O` (centres undefined) belongs 123 to 127 °C; to `CCOC(Cn1cc[nH]c1=O)c1ccc(OC)c(OC)c1` (centres undefined), 134 °C.
The molecule `Nc1cc(C(F)(F)F)c([N+](=O)[O-])cc1C(=O)O` came in with a melting point of 237 °C.
In the case of `CCOC(=O)Nc1cccc2c1CN(C)CC2c1ccc(Cl)cc1` (centres undefined) it was 155 °C.
To `O=c1nc(-c2ccccn2)sc2ccc(OCCCO)cc12` belongs 197 to 198 °C; to `O=C(O)[C@@H]1C[C@H](O)CN1C(=O)c1ccccc1`, 133 to 136 °C; to `CCOC(=O)C1CCN(c2nc(COc3ccc(CO)cc3OC)c(C)s2)CC1`, 84 to 85 °C.
In the case of `CC(=O)Nc1cccc(-c2ccc3nc(-c4cccnc4N)n(-c4ccc(CNS(=O)(=O)c5ccccc5)cc4)c3n2)c1` it was 180 to 182 °C.
On to `OCC1OC(n2cnc3c(NC(c4ccccc4)c4ccccc4)ncnc32)C(O)C1O` (centres undefined), for which the melting point was 89 to 96 °C.
To `CCOC(=O)c1cc(=O)nc2n1-c1ccccc1OC2` belongs 174 to 175 °C.
The molecule `N#CCCSN1C(=O)COCC1=O` returned a melting point of 121 to 122 °C.
To `CC(=O)Oc1ccc(Nc2nc(N)ncc2Oc2ccc(Cl)cc2)cc1` belongs 132 to 133 °C; to `COc1ccc(S(=O)(=O)N(CCC(F)(F)C(F)F)c2ccccc2/C=C/c2ccncc2)cc1`, 124 to 126 °C.
To `OC1(c2cccn2Cc2ccccc2F)CCN(CCc2ccccc2)CC1` belongs 130 to 131 °C.
To `CCCCCCCCCCCCCCCCCCOC(=O)C=CC(=O)OCC` belongs 42 °C.
In turn, `COc1ccc2c(=O)c(-c3ccccc3)c(SCc3ccccn3)oc2c1` showed a melting point of 168 to 169 °C.
`CCOC(=O)c1cc2c(nc(C)n2C)c2c1CCC1(Cc3ccccc3C1)N2` displayed a melting point of 167 to 168 °C.
For `Cn1cc(-c2cccc(F)c2)c(=O)c(-c2cccc(C(F)(F)F)c2)c1`, the melting point lay within 94 to 96 °C.
`COC/C(=C1/SC(=O)NC1=O)c1cccc2ccccc12`: the melting point lay within 133 to 134 °C.
To `OC(CNc1ccnc2cc(Cl)ccc12)c1ccccc1` (centres undefined) belongs 221 to 222 °C; to `COc1ccc2c(c1)C(=O)c1ccc(C(=O)O)cc1S2(=O)=O`, 324 to 327 °C; to `CCOC(=O)c1cc2c(O)nncc2nc1NC`, 290 to 292 °C.
To `CC(=O)NC[C@H]1CN(c2ccc(N3CCC4(CC3)CC4=S=O)c(F)c2)C(=O)O1` belongs 78 to 80 °C; to `COc1ccc2c(=O)cc(-c3ccccc3Cl)oc2c1`, 148 to 150 °C.
Regarding `CCC(=O)NCC[C@@H]1CCc2cc(Br)c(O)c(CCO)c21`, the melting point is 85 to 87 °C.
To `O=c1c2cccnc2c(-c2cccc(Cl)c2)cn1Cc1cccs1` belongs 142 to 145 °C.
In the case of `COc1cc(Br)c(O)c([N+](=O)[O-])c1` it was 116 to 118 °C; in that of `COC(=O)Nc1nc(-c2ccccc2)c(-c2nc3ccccc3c(=O)n2-c2cccc(C)c2)s1`, 268 to 269 °C; in that of `CCOC(=O)c1sc(Cl)nc1-c1ccc(F)cc1`, 113 to 114 °C.
In turn, `O=[N+]([O-])c1cccc(OCc2ncc3ccccc3n2)c1` gave a melting point of 125 to 127 °C.
In turn, `O=[N+]([O-])c1ccc2c(c1)nc(/C=C/c1ccccc1)n2-c1ccccn1` gave a melting point of 200 to 202 °C.
As to `c1ccc(CN2CCC(Oc3cnccn3)(c3ccccc3)CC2)cc1`, the melting point was 107 to 108 °C.
In the case of `CCNC(=S)NS(=O)(=O)c1cc2c(cc1OC)OC(C)(C)C(NC(=O)c1cc(F)ccc1OC)C2` (centres undefined) it was 211 °C.

The values are drawn from a melting point compilation (Tetko et al.; mined from patent text by program, amines drawn as free bases though some values may be those of a salt).
